According to patent US20260364184A1, “COMPOUND BASED ON OXOISOINDOLINYL-SUBSTITUTED TETRAHYDROPYRIMIDINE-DIONE AND USE THEREOF” (GLUETACS THERAPEUTICS (SHANGHAI) CO., LTD., priority 2023, published 2026):
Values belong to the compound of their own block, whether it stands above or below them.

How the values were obtained:
CDK2 = CDK2 (Homo sapiens, UniProt P24941); assay: Western blot degradation of CDK2; format: cell-based; details: hPBMC Cell; 24 hours
Description: (§1) Conventional Western blot assay was performed to evaluate the effects of the compounds of the present disclosure on the expression of target proteins in cells.
(§2) (1) Cell Seeding and Protein Harvesting: The selected cells were processed according to the cell seeding procedure and protein harvesting procedure in Table II-2.
(§3) (2) To the collected supernatant, 5×SDS sample loading buffer was added, followed by denaturation at 95 °C for 5 minutes. The denatured samples were then separated by SDS-PAGE electrophoresis on a polyacrylamide gel. Proteins were transferred to a nitrocellulose membrane (0.45 μm NC membrane), blocked with blocking buffer at room temperature for 1 hour, and subjected to antibody incubation and development procedures according to the antibody manufacturer's instructions (Cell Signaling Technology).
(§4) Half-Maximal Degradation Concentration value (the drug concentration required for degrading proteins by 50%, abbreviated as DC50) reads method: comparing the grayscale values of Western blot bands from drug-treated samples with those from blank DMSO-treated controls, and identifying the drug concentration range at which the grayscale value is half that of the DMSO-treated control bands.
(§5) DC50 values can be calculated using ImageJ software to measure grayscale values of Western blot bands from drug-treated samples. […]

ER = ER (Homo sapiens, UniProt P03372); assay: Western blot degradation of ER; format: cell-based; details: Table IIA3, ER inhibitor-based
Description: as §1, §2, §3, §4, §5

JEKO-1 = assay: Inhibition of JEKO-1 cell proliferation (CellTiter luminescent viability); format: cell-based, human; details: Table IC1, BTK inhibitor-based; JEKO-1, 96 hours; read-out: Inhibitory activity (IC50, nM) on tumor cell proliferation, JEKO-1
Description: (§6) The tumor cells used herein were cultured in a cell culture medium listed in table 3 at 37 °C in an incubator with 5% CO2. Prior to experimentation, all cell lines used were correctly identified by STR profiling, and tested negative for mycoplasma contamination using a mycoplasma detection kit through routine screenings.
(§7) The IC50 values of the compounds of the present disclosure (including the compounds in Table 1, Table 2, and Examples 1-468) were determined using the CellTiter-Meiluncell Luminescent Cell Viability Assay Kit from Dalian Meilun Biotech Co., Ltd. The detailed procedure is as follows: Tumor cells were seeded in 96-well cell culture plates at the densities specified in Table 4. On the following day, the test compounds of the present disclosure were subjected to serial dilution. The dilution can be performed according to one of the following two methods: • (1) The first dilution method: The test compounds of the present disclosure (including the compounds in Table 1, Table 2, and Examples 1-468) were subjected to 5-fold serial dilutions starting from a highest concentration of 2000 μM, resulting in a total of 9 concentrations from high to low (2000, 400, 80, 16, 3.2, 0.64, 0.128, 0.0256, 0.00512 μM). Subsequently, 0.5 μL of the test compound dilution was transferred into the 96-well plate containing the cells, with each well containing 100 μL of cell culture medium. […] Into the 96-well plate, the diluted test compounds and corresponding detection reagents were added, resulting in final test compound concentrations of 500 nM and 10 nM, respectively. The experimental procedure is described below using the diluted 2 μM test compound as an example.
(§8) 0.5 μL of the aforementioned diluted compound of the present disclosure (including the compounds in Table 1, Table 2, and Examples 1-468) was added to the seeded cells in 100 μL of medium, yielding a final test compound concentration of 10 nM. After the cells were treated with the compounds of the present disclosure for a specified period, the cell viability assay reagent was added to the culture medium according to the kit's instructions to determine cell viability. […] All controls were treated using the same procedure as the compounds of the present disclosure. The growth inhibition curves for the compounds of the present disclosure were plotted using Prism GraphPad software, and the IC50 values were calculated therefrom.

BTK = biological target: T1, BTK (Homo sapiens, UniProt Q06187); assay: Western blot degradation of BTK; format: cell-based; details: Table IIA4, BTK inhibitor-based
T1 construct: expression of target proteins in cells; endogenous in cells
Description: as §1, §2, §3, §4
DC50 values can be calculated using ImageJ software to measure grayscale values of Western blot bands from drug-treated samples. The concentration-response curve is fitted to estimate the drug concentration corresponding to half the grayscale value.
Target protein remaining (%) refers to the percentage of target protein remaining in cells after treatment with protein degrader compounds.
Calculation method for target protein remaining (%): Use ImageJ software to measure grayscale values of Western blot bands from drug (protein degrader)-treated samples. The grayscale value of drug-treated bands is divided by that of internal control protein bands, and the resulting quotient is normalized to obtain the relative percentage of remaining target protein after protein degrader treatment.
Target protein degradation rate (%)=1−target protein remaining (%).

[1] = system: Human non-small cell lung cancer cell line NCI-H1975; assay: Inhibition of H1975 cell proliferation (CellTiter luminescent viability); format: cell-based; details: Table IC1, BTK inhibitor-based; H1975, 96 hours; read-out: Inhibitory activity (IC50, nM) on tumor cell proliferation, H1975
Procedure, shortened: (§9)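 Cells are seeded in 96-well plates, cultured at 37 °C, 5% CO2, and treated next day with 5-fold serial compound dilutions (stock series from 2000 μM; 0.5 μL into 100 μL medium). Viability is read by CellTiter-Meiluncell luminescence after the set exposure, and IC50 is taken from growth-inhibition curves.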

[2] = system: Human gastric cancer cell line MGC803; assay: Inhibition of MGC803 tumor cell proliferation (CellTiter luminescent viability); format: cell-based; details: Table IC1, BTK inhibitor-based; MGC803, 96 hours; read-out: Inhibitory activity (IC50, nM) on tumor cell proliferation, MGC803
Description: as §6, §7, §8

[3] = system: Human Multiple myeloma cell line (MM.1S); assay: Inhibition of MM.1S cell proliferation (CellTiter luminescent viability); format: cell-based; details: Table IC1, BTK inhibitor-based, 96 hours, read-out: Inhibitory activity (IC50, nM) on tumor cell proliferation, MM.1S
Procedure, shortened: as §9

[4] = system: Human T lymphocytic leukemia cell line (Jurkat); assay: Inhibition of Jurkat cell proliferation (CellTiter luminescent viability); format: cell-based; details: Table IC1, BTK inhibitor-based, 96 hours, read-out: Inhibitory activity (IC50, nM) on tumor cell proliferation, Jurkat

Chain of ER (P03372 whole entry): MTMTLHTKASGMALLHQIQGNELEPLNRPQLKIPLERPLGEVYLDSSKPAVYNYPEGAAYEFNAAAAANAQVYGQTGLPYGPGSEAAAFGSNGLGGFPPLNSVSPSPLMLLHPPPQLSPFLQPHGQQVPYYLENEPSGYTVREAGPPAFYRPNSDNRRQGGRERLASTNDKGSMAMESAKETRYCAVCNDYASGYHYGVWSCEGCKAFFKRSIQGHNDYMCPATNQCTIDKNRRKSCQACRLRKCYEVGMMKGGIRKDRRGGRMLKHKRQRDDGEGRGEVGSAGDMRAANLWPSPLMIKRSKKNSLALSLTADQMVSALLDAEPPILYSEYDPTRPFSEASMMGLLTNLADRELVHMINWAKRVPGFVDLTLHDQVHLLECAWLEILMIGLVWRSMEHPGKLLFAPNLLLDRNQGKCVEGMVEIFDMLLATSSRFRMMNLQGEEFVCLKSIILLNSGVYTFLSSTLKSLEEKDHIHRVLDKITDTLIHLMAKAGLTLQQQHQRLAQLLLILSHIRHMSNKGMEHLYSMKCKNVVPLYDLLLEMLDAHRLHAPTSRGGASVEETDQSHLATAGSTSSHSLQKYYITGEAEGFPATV
Chain of ER (Q96SW2 whole entry partner): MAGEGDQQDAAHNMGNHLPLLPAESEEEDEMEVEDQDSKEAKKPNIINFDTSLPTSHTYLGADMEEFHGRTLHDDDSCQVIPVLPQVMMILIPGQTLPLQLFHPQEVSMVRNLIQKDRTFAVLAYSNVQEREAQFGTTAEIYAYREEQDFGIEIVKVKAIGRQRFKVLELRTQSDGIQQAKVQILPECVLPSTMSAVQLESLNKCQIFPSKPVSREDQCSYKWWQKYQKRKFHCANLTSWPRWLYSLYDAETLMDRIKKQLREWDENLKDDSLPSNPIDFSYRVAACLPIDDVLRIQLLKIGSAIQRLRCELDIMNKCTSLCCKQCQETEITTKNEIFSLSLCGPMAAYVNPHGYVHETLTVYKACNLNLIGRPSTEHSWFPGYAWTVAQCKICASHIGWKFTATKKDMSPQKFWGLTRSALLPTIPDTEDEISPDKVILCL
T1 sequence (Q06187 whole entry): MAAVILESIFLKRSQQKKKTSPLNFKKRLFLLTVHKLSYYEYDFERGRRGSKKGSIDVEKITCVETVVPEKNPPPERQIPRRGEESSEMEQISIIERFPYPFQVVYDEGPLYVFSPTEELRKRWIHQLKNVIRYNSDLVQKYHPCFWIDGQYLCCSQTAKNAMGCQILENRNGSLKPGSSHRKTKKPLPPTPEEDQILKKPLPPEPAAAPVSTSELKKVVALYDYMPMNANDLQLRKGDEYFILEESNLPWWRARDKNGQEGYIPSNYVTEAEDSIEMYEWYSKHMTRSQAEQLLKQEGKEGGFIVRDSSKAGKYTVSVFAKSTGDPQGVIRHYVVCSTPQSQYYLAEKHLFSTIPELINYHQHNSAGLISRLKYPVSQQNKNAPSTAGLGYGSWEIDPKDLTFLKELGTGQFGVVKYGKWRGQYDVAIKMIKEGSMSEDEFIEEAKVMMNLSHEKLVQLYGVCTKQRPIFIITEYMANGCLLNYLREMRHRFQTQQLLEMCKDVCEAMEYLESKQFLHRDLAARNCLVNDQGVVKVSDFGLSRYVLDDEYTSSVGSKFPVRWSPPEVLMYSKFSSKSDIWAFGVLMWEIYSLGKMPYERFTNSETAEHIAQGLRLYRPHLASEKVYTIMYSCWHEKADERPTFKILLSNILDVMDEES

Degradation of substrate protein CDK2 (substrate protein remaining %) (CDK2): A (0%≤substrate protein remaining %≤80%)
Structure (SMILES): Cc1cc(S(=O)(=O)N2CCN(Cc3ccc4c(c3)C(=O)N(N3CCC(=O)NC3=O)C4=O)CC2)ccc1Nc1ncc(Br)c(Nc2cccc(F)c2C(N)=O)n1 [GT-06829, 2-((5-bromo-2-((4-((4-((2-(2,4-dioxotetrahydropyrimidin-1(2H)-yl)-1,3-dioxoisoindolin-5-yl)methyl)piperazin-1-yl)sulfonyl)-2-methylphenyl)amino)pyrimidin-4-yl)amino)-6-fluorobenzamide]

Degradation of substrate protein ER (substrate protein remaining %) (ER): A (0%≤substrate protein remaining %≤80%)
Structure (SMILES): O=C1CCN(N2C(=O)c3ccc(CN4CCN(c5ccc([C@@H]6c7ccc(O)cc7OC[C@@H]6c6ccccc6)cc5)CC4)cc3C2=O)C(=O)N1 [GT-04778, 2-(2,4-dioxotetrahydropyrimidin-1(2H)-yl)-5-((4-(4-((3S,4R)-7-hydroxy-3-phenylchroman-4-yl)phenyl)piperazin-1-yl)methyl)isoindoline-1,3-dione]

Degradation of substrate protein BTK (substrate protein remaining %) (BTK): A (0%≤substrate protein remaining %≤80%) | IC50 [1]: 50 to 100 nM | IC50 [2]: 50 to 100 nM | IC50 [3]: 10 to 50 nM | IC50 [4]: 50 to 100 nM
Structure (SMILES): Nc1ncnc2c1c(-c1ccc(Oc3ccccc3)cc1)nn2C1CCN(Cc2ccc3c(c2)CN(N2CCC(=O)NC2=O)C3=O)CC1 [GT-05075, 1-(5-((4-(4-amino-3-(4-phenoxyphenyl)-1H-pyrazolo[3,4-d]pyrimidin-1-yl)piperidin-1-yl)methyl)-1-oxoisoindolin-2-yl)dihydropyrimidine-2,4 (1H,3H)-dione]
IC50 (JEKO-1): 50 to 100 nM
